Assays:
[1] = biological target: T1, Sodium/glucose cotransporter 2 (Homo sapiens, UniProt P31639); assay: (§1) These cell lines transport 14C-labelled alpha-methyl-glucopyranoside (14C-AMG, Amersham) into the interior of the cell in sodium-dependent manner.The SGLT-2 assay is carried out as follows: CHO-hSGLT2 cells are cultivated in Ham's F12 Medium (BioWhittaker) with 10% foetal calf serum and 250 ug/mL zeocin (Invitrogen), and HEK293-hSGLT2 cells are cultivated in DMEM medium with 10% foetal calf serum and 250 ug/mL zeocin (Invitrogen). The cells are detached from the culture flasks by washing twice with PBS.; format: cell-based
T1 sequence (P31639 whole entry): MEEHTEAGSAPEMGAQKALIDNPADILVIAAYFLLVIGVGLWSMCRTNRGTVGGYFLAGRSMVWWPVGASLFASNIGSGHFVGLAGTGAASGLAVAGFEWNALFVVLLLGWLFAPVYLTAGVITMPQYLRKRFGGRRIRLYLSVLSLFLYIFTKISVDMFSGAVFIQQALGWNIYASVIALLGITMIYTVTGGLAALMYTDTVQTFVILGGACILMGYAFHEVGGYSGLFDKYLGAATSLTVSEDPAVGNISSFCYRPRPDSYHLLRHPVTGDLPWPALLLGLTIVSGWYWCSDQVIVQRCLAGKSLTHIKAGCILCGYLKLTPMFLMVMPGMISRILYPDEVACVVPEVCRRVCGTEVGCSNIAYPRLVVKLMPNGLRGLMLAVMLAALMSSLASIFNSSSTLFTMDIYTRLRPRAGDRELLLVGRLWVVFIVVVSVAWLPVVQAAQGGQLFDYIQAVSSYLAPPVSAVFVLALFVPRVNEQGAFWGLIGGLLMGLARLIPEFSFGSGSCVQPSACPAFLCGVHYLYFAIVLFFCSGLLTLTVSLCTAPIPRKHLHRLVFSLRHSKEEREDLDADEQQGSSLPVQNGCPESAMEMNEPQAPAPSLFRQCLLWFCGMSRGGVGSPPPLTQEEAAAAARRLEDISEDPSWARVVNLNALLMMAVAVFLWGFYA

[2] = biological target: T2, Sodium/glucose cotransporter 1 (Homo sapiens, UniProt P13866); assay: as §1; format: cell-based
T2 sequence (P13866 whole entry): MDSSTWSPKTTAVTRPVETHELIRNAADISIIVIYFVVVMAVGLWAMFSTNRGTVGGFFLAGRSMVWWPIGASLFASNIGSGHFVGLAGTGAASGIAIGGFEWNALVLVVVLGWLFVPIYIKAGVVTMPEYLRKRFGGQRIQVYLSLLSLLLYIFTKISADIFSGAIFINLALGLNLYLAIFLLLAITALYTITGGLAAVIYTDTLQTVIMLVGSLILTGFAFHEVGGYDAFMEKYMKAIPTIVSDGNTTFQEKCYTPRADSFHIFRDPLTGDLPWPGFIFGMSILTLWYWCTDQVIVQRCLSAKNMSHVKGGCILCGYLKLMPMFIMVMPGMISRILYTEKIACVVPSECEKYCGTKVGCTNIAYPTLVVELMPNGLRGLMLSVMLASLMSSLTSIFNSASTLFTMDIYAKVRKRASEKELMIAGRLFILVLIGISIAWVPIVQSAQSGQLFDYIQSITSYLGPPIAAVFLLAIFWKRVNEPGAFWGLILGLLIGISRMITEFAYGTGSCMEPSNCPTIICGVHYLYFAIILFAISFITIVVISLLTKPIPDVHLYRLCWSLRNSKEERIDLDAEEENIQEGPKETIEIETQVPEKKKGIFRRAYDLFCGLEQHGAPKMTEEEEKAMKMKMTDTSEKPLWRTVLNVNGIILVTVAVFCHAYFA

SMILES | IC50 [1] [nM] | IC50 [2] [nM]
CCc1ccc([C@@H]2O[C@H](COC(=O)OC(C)(C)C)[C@@H](O)[C@H](O)[C@H]2O)cc1Cc1ccc2c(c1)OCCO2 | 89 | 188
CCc1ccc([C@@H]2O[C@H](COP(=O)(O)O)[C@@H](O)[C@H](O)[C@H]2O)cc1Cc1ccc2c(c1)OCCO2 | 2.4 | 89.3

From ChEMBL document CHEMBL3639144, “Glycoside derivatives and uses thereof” (2013)
